Assay results: patent US12545685B2 (Daiichi Sankyo Company, Limited, priority 2011, dated 2026)

Experiments:
[1] = target: T1, Mdm2/p53 binding (GST-Mdm2 / His-p53) (Homo sapiens, UniProt Q00987, L33E); assay: Mdm2/p53 binding assay (HTRF, His-p53 and GST-Mdm2); conditions: His-p53 (aa 1-132) and GST-Mdm2 (aa 25-108, L33E) 6.25 nM each; 25°C, 1 hour; values given as ranges
T1 construct: Mdm2 partial protein having Mdm2 amino acids at positions 25 to 108
Outline: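 His-p53 (aa 1–132) and GST-Mdm2 (aa 25–108, L33E) were prepared at 6.25 nM each in the protein dilution (20 mM HEPES pH 7.4, 150 mM NaCl, 0.1% BSA). Compound in 10% DMSO buffer and XL665 anti-His/Eu anti-GST antibodies (KF buffer) were added, with 1 h at 25 °C. The 665/620 nm TR-FRET ratio gave T/C and a sigmoid-fitted IC50.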

[2] = tested on: human lung cancer-derived cell line NCI-H460 having wild-type p53; assay: Cell growth inhibition assay (MTT); assay type: cell-based; conditions: 72 h, NCI-H460 cells, 3 days culture, values given as ranges, read-out: 50% growth inhibition concentration (GI50 value)
Method: A cell growth inhibition assay was conducted using a human lung cancer-derived cell line NCI-H460 having wild-type p53.
NCI-H460 cells were suspended in a medium (RPMI1640 medium containing 10% fetal bovine serum) and the suspension was added in an amount of 500 cells/150 μl/well to a 96-well plate. A test compound was dissolved in DMSO and this solution was diluted with medium to prepare a sample solution (DMSO concentration: 1% or lower). On the next day, medium nonsupplemented with the test compound, or the sample solution, was added in an amount of 50 μl/well. Cells were then cultured at 37° ° C. for 3 days in a 5% CO2 atmosphere.
An MTT assay was conducted immediately after the nonsupplemented medium or the sample solution was added. Another MTT assay was conducted after culturing the cells for 3 days. The MIT assays were conducted as shown below.
A 5 mg/ml MTT (3-(4,5-dimethylthiazol-2-yl)-2,5-diphenyltetrazolium bromide, Sigma-Aldrich Co., M-2128) solution was prepared using a phosphate buffer solution (Dulbecco's Phosphate-buffered Saline). This MIT solution was added in an amount of 20 μl/well. Then the plate was cultured at 37° ° C. for 4 hours in a 5% CO2 atmosphere. The plate was centrifuged at 1200 rpm for 5 minutes and then the culture supernatant was removed by aspiration using a dispenser. DMSO was added in an amount of 150 μl/well to dissolve generated formazan. The plate was stirred using a plate mixer for uniform color development from each well. The absorbance of each well was measured at OD 540 nm and at a reference OD (660 nm) using a plate reader (SpectraMax PLUS384, Molecular Devices, CA, USA).
The OD value measured on the day of adding the sample solution was defined as S. The OD value measured three days after addition of the sample solution was defined as T. The OD value measured three days after addition of the DMSO dilution was defined as C. T/C (%) was determined at each concentration according to the formula shown below in order to prepare a dose response curve, from which 50% growth inhibition concentration (GI50 value) was calculated.

T1 sequence (Q00987 25-108 L33E): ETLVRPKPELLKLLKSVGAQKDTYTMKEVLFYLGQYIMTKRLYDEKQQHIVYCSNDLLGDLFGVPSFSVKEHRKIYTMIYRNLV

| IC50 [1] [µM] | GI50 [2] [µM] | SMILES |
| --- | --- | --- |
| 0.001 to 0.05 | 1 to 5 | CC1(C)CCC2(CC1)N[C@@H](C(=O)N[C@H]1CC[C@H](O)CC1)[C@H](c1cccc(Cl)c1F)[C@]21C(=O)Nc2nc(Cl)ccc21 (relative stereo) [Example 6, (3′R, 4′S,5′R)-6″-chloro-4′-(3-chloro-2-fluorophenyl)-N-(trans-4-hydroxycyclohexyl)-4,4-dimethyl-2″-oxo-1″,2″-dihydrodispiro[cyclohexane-1,2′-pyrrolidine-3′,3″-pyrrolo[2,3-b]pyridine]-5′-carboxamide] |
| 0.001 to 0.05 | 0.1 to 0.5 | CC1(C)CCC2(CC1)N[C@@H](C(=O)N[C@H]1CC[C@H](O)CC1)[C@H](c1ccnc(Cl)c1F)[C@]21C(=O)Nc2cc(Cl)ccc21 (relative stereo) [Example 16, (3′R, 4′S,5′R)-6″-chloro-4′-(2-chloro-3-fluoropyridin-4-yl)-N-(trans-4-hydroxycyclohexyl)-4,4-dimethyl-2″-oxo-1″,2″-dihydrodispiro[cyclohexane-1,2′-pyrrolidine-3′,3″-indole]-5′-carboxamide] |
| 0.05 to 0.1 | 0.1 to 0.5 | CC1(C)CCC2(CC1)N[C@@H](C(=O)N[C@H]1CC[C@H](c3nnco3)CC1)[C@H](c1ccnc(Cl)c1F)[C@]21C(=O)Nc2cc(Cl)ccc21 (relative stereo) [Example 18, (3′R, 4′S,5′R)-6″-chloro-4′-(2-chloro-3-fluoropyridin-4-yl)-4,4-dimethyl-N-[trans-4-(1,3,4-oxadiazol-2-yl)cyclohexyl]-2″-oxo-1″,2″-dihydrodispiro[cyclohexane-1,2′-pyrrolidine-3′,3″-indole]-5′-carboxamide] |
| 0.05 to 0.1 | 0.1 to 0.5 | CC1(C)CCC2(CC1)N[C@@H](C(=O)N[C@H]1CC[C@H](NC(=O)CO)CC1)[C@H](c1cccc(Cl)c1F)[C@]21C(=O)Nc2cc(Cl)ccc21 (relative stereo) [Example 24, (3′R, 4′S,5′R)-6″-chloro-4′-(3-chloro-2-fluorophenyl)-N-{trans-4-[(hydroxyacetyl)amino]cyclohexyl}-4,4-dimethyl-2″-oxo-1″,2″-dihydrodispiro[cyclohexane-1,2′-pyrrolidine-3′,3″-indole]-5′-carboxamide] |
| 0.05 to 0.1 | 0.5 to 1 | CC1(C)CCC2(CC1)N[C@@H](C(=O)N[C@H]1CC[C@H](c3nnco3)CC1)[C@H](c1ccnc(Cl)c1F)[C@]21C(=O)Nc2nc(Cl)ccc21 (relative stereo) [Example 26, (3′R, 4′S,5′R)-6″-chloro-4′-(2-chloro-3-fluoropyridin-4-yl)-4,4-dimethyl-N-[trans-4-(1,3,4-oxadiazol-2-yl)cyclohexyl]-2″-oxo-1″,2″-dihydrodispiro[cyclohexane-1,2′-pyrrolidine-3′,3″-pyrrolo[2,3-b]pyridine]-5′-carboxamide] |
| 0.05 to 0.1 | 0.1 to 0.5 | CC1(C)CCC2(CC1)N[C@@H](C(=O)N[C@H]1CC[C@H](c3nnc[nH]3)CC1)[C@H](c1ccnc(Cl)c1F)[C@]21C(=O)Nc2cc(Cl)ccc21 (relative stereo) [Example 32, (3′R, 4′S,5′R)-6″-chloro-4′-(2-chloro-3-fluoropyridin-4-yl)-4,4-dimethyl-2″-oxo-N-[trans-4-(4H-1,2,4-triazol-3-yl)cyclohexyl]-1″,2″-dihydrodispiro[cyclohexane-1,2′-pyrrolidine-3′,3″-indole]-5′-carboxamide] |
| 0.001 to 0.05 | 0.1 to 0.5 | CC(O)[C@@H]1CC[C@@H](NC(=O)[C@@H]2NC3(CCC(C)(C)CC3)[C@@]3(C(=O)Nc4cc(Cl)ccc43)C2c2ccnc(Cl)c2)CO1 (single isomer, unassigned) [Example 77] |
| 0.05 to 0.1 | 0.1 to 0.5 | CC(O)[C@@H]1CC[C@@H](NC(=O)[C@@H]2NC3(CCC(C)(C)CC3)[C@@]3(C(=O)Nc4cc(Cl)ccc43)[C@H]2c2ccnc(Cl)c2F)CO1 (single isomer, unassigned) [Example 93] |
| 0.001 to 0.05 | 0.5 to 1 | CC1(C)CCC2(CC1)N[C@@H](C(=O)N[C@@H]1CC[C@@H](CO)OC1)[C@H](c1cccc(Cl)c1F)[C@]21C(=O)Nc2nc(Cl)ccc21 [Example 3, (3′R, 4′S,5′R)-6″-chloro-4′-(3-chloro-2-fluorophenyl)-N-[(3R,6S)-6-(hydroxymethyl)tetrahydro-2H-pyran-3-yl]-4,4-dimethyl-2″-oxo-1″,2″-dihydrodispiro[cyclohexane-1,2′-pyrrolidine-3′,3″-pyrrolo[2,3-b]pyridine]-5′-carboxamide] |
| 0.001 to 0.05 | 0.1 to 0.5 | CC1(C)CCC2(CC1)N[C@@H](C(=O)N[C@@H]1CC[C@@H](CO)OC1)[C@H](c1cccc(Cl)c1F)[C@]21C(=O)Nc2cc(Cl)ccc21 [Example 8, (3′R, 4′S,5′R)-6″-chloro-4′-(3-chloro-2-fluorophenyl)-N-[(3R,6S)-6-(hydroxymethyl)tetrahydro-2H-pyran-3-yl]-4,4-dimethyl-2″-oxo-1″,2″-dihydrodispiro[cyclohexane-1,2′-pyrrolidine-3′,3″-indole]-5′-carboxamide] |
| 0.001 to 0.05 | 0.5 to 1 | CC1(C)CCC2(CC1)N[C@@H](C(=O)N[C@@H]1CC[C@@H](C(C)(C)O)OC1)[C@H](c1cccc(Cl)c1F)[C@]21C(=O)Nc2nc(Cl)ccc21 [Example 11, (3′R, 4′S,5′R)-6″-chloro-4′-(3-chloro-2-fluorophenyl)-N-[(3R,6S)-6-(1-hydroxy-1-methylethyl)tetrahydro-2H-pyran-3-yl]-4,4-dimethyl-2″-oxo-1″,2″-dihydrodispiro[cyclohexane-1,2′-pyrrolidine-3′,3″-pyrrolo[2,3-b]pyridine]-5′-carboxamide] |
| 0.001 to 0.05 | 0.1 to 0.5 | CC1(C)CCC2(CC1)N[C@@H](C(=O)N[C@@H]1CC[C@@H](CO)OC1)[C@H](c1ccnc(Cl)c1)[C@]21C(=O)Nc2cc(Cl)ccc21 [Example 13, (3′R, 4′R, 5′R)-6″-chloro-4′-(2-chloropyridin-4-yl)-N-[(3R,6S)-6-(hydroxymethyl)tetrahydro-2H-pyran-3-yl]-4,4-dimethyl-2″-oxo-1″,2″-dihydrodispiro[cyclohexane-1,2′-pyrrolidine-3′,3″-indole]-5′-carboxamide] |
| 0.1 to 0.5 | 0.5 to 1 | CC1(C)CCC2(CC1)N[C@@H](C(=O)N[C@H]1CC[C@H](O)CC1)[C@H](c1cc(F)cc(Cl)c1)[C@]21C(=O)Nc2cc(Cl)ccc21 [Example 14, (3′R, 4′R, S′R)-6″-chloro-4′-(3-chloro-5-fluorophenyl)-N-(trans-4-hydroxycyclohexyl)-4,4-dimethyl-2″-oxo-1″,2″-dihydrodispiro[cyclohexane-1,2′-pyrrolidine-3′,3″-indole]-5′-carboxamide] |
| 0.05 to 0.1 | 0.1 to 0.5 | CC1(C)CCC2(CC1)N[C@@H](C(=O)N[C@@H]1CC[C@@H](C(C)(C)O)OC1)[C@H](c1ccnc(Cl)c1F)[C@]21C(=O)Nc2cc(Cl)ccc21 [Example 17, (3′R, 4′S,5′R)-6″-chloro-4′-(2-chloro-3-fluoropyridin-4-yl)-N-[(3R,6S)-6-(1-hydroxy-1-methylethyl)tetrahydro-2H-pyran-3-yl]-4,4-dimethyl-2″-oxo-1″,2″-dihydrodispiro[cyclohexane-1,2′-pyrrolidine-3′,3″-indole]-5′-carboxamide] |
